Values quoted from earlier work, collected in PMC8819907 (Journal of Experimental & Clinical Cancer Research : CR, 2022).

Assays:
[1] = system: patients with advanced solid tumors; parameters: method as in ref 27 (a number printed in a supplementary file, which may have a reference list of its own: not looked up in the article's list); conditions: cited from earlier work
[2] = only detectable minor component in blood; cited from earlier work
[3] = parameters: method as in PMID 32696585; conditions: cited from earlier work
[4] = system: KRAS-mutant NSCLC; parameters: method as in ref 24 (a number printed in a supplementary file, which may have a reference list of its own: not looked up in the article's list); conditions: cited from earlier work
[5] = system: recurrent low-grade serous carcinoma of the ovary or peritoneum; parameters: method as in ref 33,34 (a number printed in a supplementary file, which may have a reference list of its own: not looked up in the article's list); conditions: 8/52 patients; cited from earlier work
[6] = system: metastatic biliary tract cancers; parameters: method as in ref 33,34 (a number printed in a supplementary file, which may have a reference list of its own: not looked up in the article's list); conditions: 3/25 response evaluable patients; cited from earlier work

## Cn1ncc(Cl)c1-c1cc(C(=O)N[C@H](CN)Cc2ccc(F)c(F)c2)oc1Cl [GSK2141795]
[1]
  RP2D for single agent: 75 mg/day

## Cc1c(=O)n(C)c(Nc2ccc(I)cc2F)c2c(=O)n(C3CC3)c(=O)n(-c3cccc(N)c3)c12 [M5]
[2]
  share of the blood radioactivity: < 7%

## O=C(c1ccc(F)c(F)c1Nc1ccc(I)cc1F)N1CC(O)([C@@H]2CCCCN2)C1 [cobimetinib]
[3]
  total AUC0−∞ lower, severe hepatic impairment vs normal hepatic function: ~30%
  unbound AUC0−∞ higher, severe hepatic impairment vs normal hepatic function: ~2 fold

## CC(=O)O[C@@]12CO[C@@H]1C[C@H](O)[C@@]1(C)C(=O)[C@H](O)C3=C(C)[C@@H](OC(=O)[C@H](O)[C@@H](NC(=O)OC(C)(C)C)c4ccccc4)C[C@@](O)([C@@H](OC(=O)c4ccccc4)[C@H]21)C3(C)C [docetaxel]
[4]
  median PFS: 11.4 weeks
  overall response rate (ORR): 12%

## Cn1cnc2c(F)c(Nc3ccc(Br)cc3Cl)c(C(=O)NOCCO)cc21 [selumetinib]
[5]
  overall response rate: 15%
[6]
  overall response rate: 12%
